# Reference: patent US8871756B2 (Hoffmann-La Roche Inc., priority 2011, dated 2014)
# System: RSV Long strain
# Experiment: Viral cytopathic effect (CPE) assay, anti-RSV activity
# Assay type: cell-based, Respiratory Syncytial Virus
# Details: human respiratory syncytial virus, 144 h, RSV Long strain (ATCC); cell viability after 6 days, Cell Counting kit-8
# Summary of the method: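 EC50 was derived from CCK-8 viability at 450/630 nm measured 6 days post-infection. Infection used enough RSV Long strain for approximately 80–90% cytopathic effect, in the presence of half-log serially diluted compound. Cells were plated the day before at 6×10^3 per well in DMEM/10% FBS.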
row,EC50,SMILES
1,0.002 µM,"Cc1ccc2nc(N3CCS(=O)(=O)c4ccc(O)cc4C3)cc(NCC3(N)COC3)c2c1 [Example 66, 4-(4-{[(3-Aminooxetan-3-yl)methyl]amino}-6-methylquinolin-2-yl)-2,3,4,5-tetrahydro-1,4-benzothiazepin-7-ol 1,1-dioxide]"
2,0.585 µM,"Cc1ccc2nc(N3CCS(=O)(=O)c4ccccc4C3)cc(NCC(C)(O)CO)c2c1 (stereo not shown) [Example 67, 3-{[2-(1,1-Dioxido-2,3-dihydro-1,4-benzothiazepin-4(5H)-yl)-6-methylquinolin-4-yl]amino}-2-methylpropane-1,2-diol]"
3,0.007 µM,"Cc1ccc2nc(N3Cc4ccccc4S(=O)(=O)C(C)C3)cc(NCC3(N)COC3)c2c1 (stereo not shown) [Example 69-2, N-[(3-Aminooxetan-3-yl)methyl]-6-methyl-2-(2-methyl-1,1-dioxido-2,3-dihydro-1,4-benzothiazepin-4(5H)-yl)quinolin-4-amine]"
4,0.005 µM,"Cc1ccc2nc(N3CCS(=O)(=O)c4ccccc4C3)cc(NC3(CN)COC3)c2c1 [Example 71, N-[3-(Aminomethyl)oxetan-3-yl]-2-(1,1-dioxido-2,3-dihydro-1,4-benzothiazepin-4(5H)-yl)-6-methylquinolin-4-amine]"

# Further lines, the compound ahead of its results:
row,SMILES,EC50
1,"Cc1ccc2nc(N3CCS(=O)(=O)c4ccccc4C3)cc(NCC(O)CCO)c2c1 (stereo not shown) [Example 68, 4-{[2-(1,1-Dioxido-2,3-dihydro-1,4-benzothiazepin-4(5H)-yl)-6-methylquinolin-4-yl]amino}butane-1,3-diol]",2.01 µM
2,"Cc1ccc2nc(N3Cc4ccccc4S(=O)(=O)C(C)C3)cc(NCCN)c2c1 (stereo not shown) [Example 69-1, N-[6-Methyl-2-(2-methyl-1,1-dioxido-2,3-dihydro-1,4-benzothiazepin-4(5H)-yl)quinolin-4-yl]ethane-1,2-diamine]",0.007 µM
3,"Cc1ccc2nc(N3CCS(=O)(=O)c4ccccc4C3)cc(NC3(CNC(=O)C(F)(F)F)COC3)c2c1 [Example 70, N-[(3-{[2-(1,1-Dioxido-2,3-dihydro-1,4-benzothiazepin-4(5H)-yl)-6-methylquinolin-4-yl]amino}oxetan-3-yl)methyl]-2,2,2-trifluoroacetamide]",0.071 µM
4,"Cc1ccc2nc(N3CCS(=O)(=O)c4ccccc4C3)cc(NC(CN)(CO)CO)c2c1 [Example 72, 2-(Aminomethyl)-2-{[2-(1,1-dioxido-2,3-dihydro-1,4-benzothiazepin-4(5H)-yl)-6-methylquinolin-4-yl]amino}propane-1,3-diol]",0.002 µM
5,"Cc1ccc2nc(N3CCS(=O)(=O)c4ccccc4C3)cc(N3CC(N)CC3=O)c2c1 (stereo not shown) [Example 73, 4-Amino-1-[2-(1,1-dioxido-2,3-dihydro-1,4-benzothiazepin-4(5H)-yl)-6-methylquinolin-4-yl]pyrrolidin-2-one]",6.98 µM
6,"Cc1ccc2nc(N3CCS(=O)(=O)c4ccccc4C3)cc(NCC[S+](C)[O-])c2c1 (stereo not shown) [Example 74, 2-(1,1-Dioxido-2,3-dihydro-1,4-benzothiazepin-4(5H)-yl)-6-methyl-N-[2-(methylsulfinyl)ethyl]quinolin-4-amine]",1.94 µM
7,"Cc1ccc2nc(N3CCS(=O)(=O)c4ccccc4C3)cc(NCCS(=O)(=O)CCN)c2c1 [Example 75, N-{2-[(2-Aminoethyl)sulfonyl]ethyl}-2-(1,1-dioxido-2,3-dihydro-1,4-benzothiazepin-4(5H)-yl)-6-methylquinolin-4-amine]",0.002 µM
8,"Cc1ccc2nc(N3CCS(=N)(=O)c4ccccc4C3)cc(NCCN)c2c1 (stereo not shown) [Example 76, N-[2-(1-Imino-1-oxido-1,2,3,5-tetrahydro-4H-1lambda˜4˜,4-benzothiazepin-4-yl)-6-methylquinolin-4-yl]ethane-1,2-diamine]",0.006 µM
9,"Cc1ccc2nc(N3CCS(=O)(=O)c4ccccc4C3)cc(NCCS(C)(=N)=O)c2c1 (stereo not shown) [Example 77, 2-(1,1-Dioxido-2,3-dihydro-1,4-benzothiazepin-4(5H)-yl)-6-methyl-N-[2-(S-methylsulfonimidoyl)ethyl]quinolin-4-amine]",8.78 µM
